Assay results published in paper PMC6696315, “Inhibiting Acetylcholinesterase to Activate Pleiotropic Prodrugs with Therapeutic Interest in Alzheimer’s Disease” (Molecules, 2019).

What was measured:
(ee)AChE = biological target: T1, (ee)AChE (Electrophorus electricus, UniProt O42275); experiment: AChE-dependent decarbamoylation (UPLC, LCMS); assay type: biochemical; details: 5 µM, PBS pH 7.4, 24 h
T1 construct: purchased Sigma Aldrich
Protocol: The in vitro decarbamoylation of 20 in the presence of AChE was established according to a new analytical method developed by Alix et al.. A large excess of Electrophorus electricus (eel)AChE was added to a solution of 20 in a phosphate-buffered saline (PBS) buffer (pH 7.4) at 25 °C. After 24 h of incubation, the solution was extracted by ethyl acetate, evaporated and solubilized in acetonitrile, and then analyzed by UPLC and LCMS. Owing to its high homology with the active-site sequence of the human AChE and its commercial availability, (ee)AChE is commonly used for in vitro assays and was chosen for this study.
The HPLC analyses were performed using an Agilent pump 1290, an autosampler 1290 and a diode array UV detector 1260 (Agilent technologies, Santa Clara, CA, USA). A reversed phase column C18 (Zorbax1 Eclipse Plus RRHD, 1.8 µm, 2.1 × 50 mm, Agilent) has been used for all components. A binary pump was used and the mobile phase was always composed of a mixture of (A) water (0.1% formic acid) and (B) acetonitrile (0.1% formic acid). Solutions of compound 19 and 20 were prepared in a PBS buffer (pH 7.4). […] The crude product was submerged in 50 µL of ACN, then analyzed by UPLC and LC-MS.

human 5-HT4R = biological target: T2, human 5-HT4R (Homo sapiens, UniProt Q13639); experiment: 5-HT4R radioligand displacement assay ([3H]-GR113808); assay type: binding
T2 construct: purchased Eurofins HTS110M
Protocol: All the synthesized phenolic derivatives and their carbamates were evaluated as potential inhibitors of human AChE, using the Ellman assay, as well as potential ligands for human 5-HT4R using a radioligand displacement assay. […].
For competition studies, 2.5 µg of proteins (5-HT4(b) membrane preparations, HTS110M, Eurofins. Eurofins’ 5-HT4(b) membrane preparations are crude membrane preparations made from their proprietary stable recombinant cell lines to ensure high-level of GPCR surface expression.) were incubated in duplicate at 25 °C for 60 min in the absence or the presence of 10^−6 or 10^−8M of each drug (9 was used as a reference standard) and 0.2 nM [^3H]-GR113808 (NET 1152, Perkin Elmer) in 25 mM Tris buffer (pH 7.4, 25 °C). At the end of the incubation, homogenates were filtered through Whatman GF/C filters (Alpha Biotech) pre-soaked with 0.5% polyethylenimine using a Brandel cell harvester. Filters were subsequently washed three times with 1 mL of ice-cold 25 mM Tris buffer (pH 7.4, 4 °C). Non-specific binding was evaluated in parallel in the presence of 30 µM serotonin. For some of these compounds, affinity constants were calculated from five-point inhibition curves using the GraphPad Prism 6 software and expressed as Ki ± SD.

T2 sequence (Q13639 whole entry): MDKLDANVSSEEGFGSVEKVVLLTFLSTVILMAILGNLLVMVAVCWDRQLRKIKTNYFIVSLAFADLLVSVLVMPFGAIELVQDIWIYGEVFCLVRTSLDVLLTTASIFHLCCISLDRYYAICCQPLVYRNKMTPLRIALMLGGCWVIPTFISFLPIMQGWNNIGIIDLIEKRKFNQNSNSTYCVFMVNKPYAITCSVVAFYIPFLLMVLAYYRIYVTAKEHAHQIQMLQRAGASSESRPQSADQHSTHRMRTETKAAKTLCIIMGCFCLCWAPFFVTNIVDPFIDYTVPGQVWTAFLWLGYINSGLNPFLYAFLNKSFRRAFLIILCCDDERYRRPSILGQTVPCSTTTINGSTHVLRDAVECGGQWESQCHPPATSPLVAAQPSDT
T1 sequence (O42275 24-633): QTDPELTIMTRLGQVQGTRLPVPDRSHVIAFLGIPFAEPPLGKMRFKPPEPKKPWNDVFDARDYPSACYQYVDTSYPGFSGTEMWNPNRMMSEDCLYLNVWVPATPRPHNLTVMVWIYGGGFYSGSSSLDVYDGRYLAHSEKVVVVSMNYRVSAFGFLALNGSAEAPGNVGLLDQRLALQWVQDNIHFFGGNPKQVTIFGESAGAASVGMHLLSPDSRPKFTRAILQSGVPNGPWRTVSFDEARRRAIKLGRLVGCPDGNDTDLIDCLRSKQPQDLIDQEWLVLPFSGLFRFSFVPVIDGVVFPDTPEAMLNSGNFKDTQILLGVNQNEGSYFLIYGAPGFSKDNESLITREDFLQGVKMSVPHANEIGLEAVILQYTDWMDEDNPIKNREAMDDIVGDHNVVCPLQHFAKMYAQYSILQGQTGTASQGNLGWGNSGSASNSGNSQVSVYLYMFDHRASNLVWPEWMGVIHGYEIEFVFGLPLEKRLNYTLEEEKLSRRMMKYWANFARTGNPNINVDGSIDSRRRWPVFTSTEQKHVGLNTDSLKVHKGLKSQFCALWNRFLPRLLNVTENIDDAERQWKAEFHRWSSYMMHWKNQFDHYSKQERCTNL

Compound: CCN(C)C(=O)Oc1cccc(CN2CCC(CCC(=O)c3cc(Cl)c(N)cc3OC)CC2)c1.O=C(O)/C=C/C(=O)O [Compound 20, [3-[[4-[3-(4-Amino-5-chloro-2-methoxyphenyl)-3-oxopropyl]-1-piperidyl]methyl]phenyl] N-ethyl-N-methyl-carbamate fumaric acid salt]
- decarbamoylation in the presence of (ee)AChE ((ee)AChE; 250 U/mL (ee)AChE): decarbamoylation of 20 and release of 4
- chemical conversion in PBS buffer without (ee)AChE ((ee)AChE; negative control): not chemically converted into 4
- (h)5-HT4R % Inhibition at 10^−8 M (human 5-HT4R; 10^−8 M): 16%
- 5-HT4R affinity (human 5-HT4R; result in words): devoid of any activity towards 5-HT4R
